Assay results published in US20230270828A1, “COMPOSITION FOR USE IN THE TREATMENT OF VIRAL INFECTIONS” (BICT S.R.L., priority 2020, published 2023).
Read-outs that look alike come from different tables or passages of the source. Marks after values point to notes of the source that are not given here.

Key:
[1] = tested on: Vero cells (Monkey Kidney Epithelial Cells)
[2] = tested on: canine herpes virus, CHV-1; experiment: Antiviral checkerboard assay, Cf2Th cells infected with canine herpes virus CHV-1; format: cell-based
Experimental: This antiviral activity was evaluated using Cf2Th cells (canine thymocytes) infected with canine herpes virus, CHV-1.
Briefly, the Cf2Th cells were plated at a concentration of 5×10^5 cells/mL in 96-well multiwells (100 μL/well) and incubated at 37° C. in an atmosphere with 5% CO2.
Upon reaching about 90% confluence (48 h incubation), the medium was aspirated from each well, and replaced with 100 μL fresh medium containing a final virus concentration equal to 1×10^3 UFP/mL, and different concentrations of Lactoferricin and Grape Seed extract.
In particular, the different combinations between the two compounds had been previously prepared by crossing serial dilutions of the same, according to the protocol defined “broth microdilution checkerboard method”.
The cells were left in co-incubation with the virus and the compounds under examination for 48 h (37° C. -5% CO2).
At the end of the incubation, the wells characterized by a cell lysis given by the viral infection were discriminated from those in which the virus was inhibited by the compounds and therefore with viable cells. This evaluation was carried out both by direct observation under the microscope and by staining with methylene blue. […]
To determine the actual presence of synergy between the two compounds, the ratio below was calculated, defined as the FIC Index (FIC I). […]

SARS-CoV-2 [3] = format: cell-based
SARS-CoV-2 [4] = experiment: Virucide activity against SARS-CoV-2, plaque assay; format: cell-based; conditions: scheme B+C; for SARS-CoV-2 infectivity reduced by: plaque assay

## CCN(CC)CCCC(C)Nc1ccnc2cc(Cl)ccc12 (centres unmarked) [Chloroquine, chloroquine, reference compound]
[1]; Vero cells, 72 h, MTT
  CC10: 20.93 ± 4.39 µM

## Lactoferricin
[2]; CHV-1, 48 h co-incubation
  Minimum Antiviral Concentration Compound alone: 3.125%
[2]; in association with Grape Seed Extract, CHV-1, 48 h
  Minimum Antiviral Concentration Compound in association: 0.781%

## lactoferrin/lactoferricin [PREP 1]
[1]; Vero cells, 72 h, MTT
  CC10: >4.06* mg/ml
  CC50: >4.06* mg/ml
[1]; Vero cells, based on CC50/CC10 data
  maximum nontoxic concentration (assumed): 4.06 mg/mL
SARS-CoV-2 [3]; 1.02 mg/ml, scheme A (preincubation of virus with compound)
  Mean ΔCt: 0.16
SARS-CoV-2 [3]; 1.02 mg/ml, scheme B+C (during and after inoculum)
  Mean ΔCt: −0.48
SARS-CoV-2 [3]; 1.02 mg/ml, scheme B+C+D (during, after inoculum and repeated)
  Mean ΔCt: −0.59
SARS-CoV-2 [3]; 2.03 mg/ml, scheme A (preincubation of virus with compound)
  Mean ΔCt: 0.36
SARS-CoV-2 [3]; 2.03 mg/ml, scheme B+C (during and after inoculum)
  Mean ΔCt: −0.50
SARS-CoV-2 [3]; 2.03 mg/ml, scheme B+C+D (during, after inoculum and repeated)
  Mean ΔCt: −1.11
SARS-CoV-2 [3]; 4.06 mg/ml, scheme A (preincubation of virus with compound)
  Mean ΔCt: 0.52
SARS-CoV-2 [3]; 4.06 mg/ml, scheme B+C (during and after inoculum)
  Mean ΔCt: −2.90
SARS-CoV-2 [3]; 4.06 mg/ml, scheme B+C+D (during, after inoculum and repeated)
  Mean ΔCt: −3.64
SARS-CoV-2 [3]; high dose, added after the inoculum, one or twice
  mean ΔCt over schemes C, B+C and B+C+D: −3.3

## polylysine [PREP 3]
[1]
  CC10: >0.40 mg/mL
SARS-CoV-2 [4]; 0.05 mg/ml
  SARS-CoV-2 infectivity reduced by: 20%
  percentage of virus replication compared to untreated infected cells: 80%
SARS-CoV-2 [4]; 0.1 mg/ml
  SARS-CoV-2 infectivity reduced by: 30.2%
SARS-CoV-2 [4]; 0.10 mg/ml
  percentage of virus replication compared to untreated infected cells: 69.8%
SARS-CoV-2 [4]; 0.20 mg/ml
  SARS-CoV-2 infectivity reduced by: 48.8%
  percentage of virus replication compared to untreated infected cells: 51.2%
SARS-CoV-2 [4]; 0.40 mg/ml
  SARS-CoV-2 infectivity reduced by: 96.3%
  percentage of virus replication compared to untreated infected cells: 3.7%
SARS-CoV-2 [3]
  antiviral effect: No antiviral effect
  virus inhibition (antiviral and virucide activities): more than 90%
  ΔCt, dose-dependent antiviral effect: −1.80 to −5.22
SARS-CoV-2 [3]; addition of a third dose (scheme B+C+D)
  antiviral effect: slight effect
SARS-CoV-2 [3]; scheme B+C
  decrease in the viral replication: more than 1 log
  maximum inhibition of the virus replication: 93%
SARS-CoV-2 [3]; schemes A, B and C
  antiviral effect: no effect
